For one data set, the system named is HBV. Nature of the data set: Anti-HBV activity in HepG2.2.15 cells (HBV DNA in culture medium by qPCR). To be noted: Hepatitis B virus, HepG2.2.15, 144 h, HepG2.2.15 cells, 6 days treatment, HBV DNA in culture medium quantified by real-time PCR; read-out: EC50. In kind it is cell-based. The procedure, abridged: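 HepG2.2.15 cells in 2% FBS medium at 37 °C were treated with compounds for 6 days, with medium and compound refreshed at day 3; 1:3 dilutions, 8 concentrations in triplicate, top 10 or 1 uM. HBV DNA in culture medium quantified by qPCR to derive EC50; CC50 from parallel plates (top 100 uM).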
(In general: In qPCR the cycle at which signal appears reflects the starting amount.)

A short description of data set [1]: Cytotoxicity determination in HepG2.2.15 cells (CCK-8 cell viability). The conditions noted are these: human, 6 days treatment, CCK-8 assay, highest concentration 100 uM. In kind it is cell-based. A digest of the protocol: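 HepG2.2.15 cells seeded at 5,000 cells/well in 2% FBS medium, exposed 6 days to compounds (8-point 1:3 dilutions from 100 uM, triplicate), refreshed at day 3. Viability read by CCK-8 after 2.5 h at 37° C, absorbance 450 nm with 630 nm reference; CC50 calculated.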
(In general: Tetrazolium dyes change colour on reduction, which living cells bring about.)

With `CCOC(=O)C1=C(CN2CC(F)(F)[C@@H]3[C@H]2CON3CCC(C)(C)C(=O)O)NC(c2nccs2)=N[C@H]1c1ccc(F)c(F)c1Cl` (single isomer, unassigned) [Compound 163, (cis)-4-(4-((6-(2-chloro-3,4-difluorophenyl)-5-(ethoxycarbonyl)-2-(thiazol-2-yl)-3,6-dihydropyrimidin-4-yl)methyl)-6,6-difluorohexahydro-1H-pyrrolo[3,2-c]isoxazol-1-yl)-2,2-dimethylbutanoic acid], the 50% effective concentration (EC50) in the data set with HBV was found to be 2 nM. The compound also gave a CC50 at 6 days in data set [1] of 45600 nM.

Turning to `CCOC(=O)C1=C(CN2CC(F)(F)[C@@H]3[C@H]2CON3CCC(C)(C)C(=O)O)NC(c2nccs2)=N[C@@H]1c1ccc(F)c(F)c1C` (single isomer, unassigned) [Compound 164, (cis)-4-(4-((6-(3,4-difluoro-2-methylphenyl)-5-(ethoxycarbonyl)-2-(thiazol-2-yl)-3,6-dihydropyrimidin-4-yl)methyl)-6,6-difluorohexahydro-1H-pyrrolo[3,2-c]isoxazol-1-yl)-2,2-dimethylbutanoic acid], the concentration giving a half-maximal response (EC50) in the data set with HBV was found to be 3 nM. The same compound displayed a CC50 at 6 days in data set [1] of over 25000 nM.

With `CCOC(=O)C1=C(CN2CC(F)(F)[C@@H]3[C@H]2CON3CCC(C)(C)C(=O)O)NC(c2nc(C)cs2)=N[C@H]1c1cccc(F)c1C` (single isomer, unassigned) [Compound 165, (cis)-4-(4-((5-(ethoxycarbonyl)-6-(3-fluoro-2-methylphenyl)-2-(4-methylthiazol-2-yl)-3,6-dihydropyrimidin-4-yl)methyl)-6,6-difluorohexahydro-1H-pyrrolo[3,2-c]isoxazol-1-yl)-2,2-dimethylbutanoic acid], in the data set on HBV, the EC50 was 8 nM. In addition, the half-maximal cytotoxic concentration (CC50) at 6 days in data set [1] is over 50000 nM.

Turning to `CCOC(=O)C1=C(CN2CC(F)(F)[C@@H]3[C@H]2CON3CCC(C)(C)C(=O)O)NC(c2nccs2)=N[C@@H]1c1ccc(F)nc1C` (single isomer, unassigned) [Compound 166, 4-((cis)-4-((5-(ethoxycarbonyl)-6-(6-fluoro-2-methylpyridin-3-yl)-2-(thiazol-2-yl)-3,6-dihydropyrimidin-4-yl)methyl)-6,6-difluorohexahydro-1H-pyrrolo[3,2-c]isoxazol-1-yl)-2,2-dimethylbutanoic acid], the EC50 with HBV was 59 nM. For the same compound, the 50% cytotoxic concentration (CC50) at 6 days in data set [1] was over 100000 nM.

Regarding `COC(=O)C1=C(CN2CC(F)(F)[C@@H]3[C@H]2CON3CCC(C)(C)C(=O)O)NC(c2nccs2)=N[C@H]1c1cccc(F)c1F` (single isomer, unassigned) [Compound 167, 4-((cis)-4-((6-(2,3-difluorophenyl)-5-(methoxycarbonyl)-2-(thiazol-2-yl)-3,6-dihydropyrimidin-4-yl)methyl)-6,6-difluorohexahydro-1H-pyrrolo[3,2-c]isoxazol-1-yl)-2,2-dimethylbutanoic acid], in the data set on HBV, the EC50 is 16.3 nM. Further, the CC50 at 6 days in data set [1] was over 100000 nM.

Turning to `COC(=O)C1=C(CN2CC(F)(F)[C@@H]3[C@H]2CON3CCC(C)(C)C(=O)O)NC(c2nccs2)=N[C@H]1c1ccc(F)cc1Cl` (single isomer, unassigned) [Compound 168, 4-((cis)-4-((6-(2-chloro-4-fluorophenyl)-5-(methoxycarbonyl)-2-(thiazol-2-yl)-3,6-dihydropyrimidin-4-yl)methyl)-6,6-difluorohexahydro-1H-pyrrolo[3,2-c]isoxazol-1-yl)-2,2-dimethylbutanoic acid], the EC50 with HBV turned out to be 9 nM. This compound showed a CC50 at 6 days in data set [1] of over 100000 nM.

With `CCOC(=O)C1=C(CN2CC(F)(F)[C@@H]3[C@H]2CON3CCC(C)(C)C(=O)O)NC(c2nccs2)=N[C@H]1c1ccc(F)cc1Cl` (single isomer, unassigned) [Compound 169, 4-((cis)-4-((6-(2-chloro-4-fluorophenyl)-5-(ethoxycarbonyl)-2-(thiazol-2-yl)-3,6-dihydropyrimidin-4-yl)methyl)-6,6-difluorohexahydro-1H-pyrrolo[3,2-c]isoxazol-1-yl)-2,2-dimethylbutanoic acid], the EC50 with HBV turned out to be 5 nM. In data set [1], the CC50 at 6 days is over 50000 nM.

As for `COC(=O)C1=C(CN2CC(F)(F)[C@@H]3[C@H]2CON3CCC(C)(C)C(=O)O)NC(c2nccs2)=N[C@H]1c1cccc(F)c1Cl` (single isomer, unassigned) [Compound 170, (cis)-4-(4-((6-(2-chloro-3-fluorophenyl)-5-(methoxycarbonyl)-2-(thiazol-2-yl)-3,6-dihydropyrimidin-4-yl)methyl)-6,6-difluorohexahydro-1H-pyrrolo[3,2-c]isoxazol-1-yl)-2,2-dimethylbutanoic acid], in the data set on HBV, the EC50 worked out at 8 nM. Further, the CC50 at 6 days in data set [1] is over 25000 nM.

For `CCOC(=O)C1=C(CN2CC(F)(F)[C@@H]3[C@H]2CON3CCC(C)(C)C(=O)O)NC(c2nccs2)=NC1c1cccc(F)c1Cl` (single isomer, unassigned) [Compound 171, (cis)-4-(4-((6-(2-chloro-3-fluorophenyl)-5-(ethoxycarbonyl)-2-(thiazol-2-yl)-3,6-dihydropyrimidin-4-yl)methyl)-6,6-difluorohexahydro-1H-pyrrolo[3,2-c]isoxazol-1-yl)-2,2-dimethylbutanoic acid], the EC50 in the data set on HBV was found to be 4 nM. This compound also yielded a CC50 at 6 days in data set [1] of 32300 nM.

Consider `CCOC(=O)C1=C(CN2CC(F)(F)[C@@H]3[C@H]2CON3CC(C)(C)C(=O)O)NC(c2nccs2)=N[C@@H]1c1ccc(F)nc1C` (single isomer, unassigned) [Compound 172, 3-((cis)-4-((5-(Ethoxycarbonyl)-6-(6-fluoro-2-methylpyridin-3-yl)-2-(thiazol-2-yl)-3,6-dihydropyrimidin-4-yl)methyl)-6,6-difluorohexahydro-1H-pyrrolo[3,2-c]isoxazol-1-yl)-2,2-dimethylpropanoic acid], for which the EC50 in the data set with HBV came to 33 nM. The same compound gave a CC50 at 6 days in data set [1] of over 100000 nM.

Regarding `CCOC(=O)C1=C(CN2CC(F)(F)[C@@H]3[C@H]2CON3CCC(C)(C)C(=O)O)NC(c2nccs2)=N[C@H]1c1cccc(F)c1F` (single isomer, unassigned) [Compound 173, 4-((cis)-4-((6-(2,3-difluorophenyl)-5-(ethoxycarbonyl)-2-(thiazol-2-yl)-3,6-dihydropyrimidin-4-yl)methyl)-6,6-difluorohexahydro-1H-pyrrolo[3,2-c]isoxazol-1-yl)-2,2-dimethylbutanoic acid], in the data set with HBV, the EC50 stood at 16 nM. This compound displayed a CC50 at 6 days in data set [1] of over 100000 nM.

In the case of `CCOC(=O)C1=C(CN2CC(F)(F)[C@@H]3[C@H]2CON3CCC(C)(C)C(=O)O)NC(c2nc(C)cs2)=N[C@H]1c1ccc(F)c(F)c1F` (single isomer, unassigned) [Compound 174, 4-((cis)-4-((5-(ethoxycarbonyl)-2-(4-methylthiazol-2-yl)-6-(2,3,4-trifluorophenyl)-3,6-dihydropyrimidin-4-yl)methyl)-6,6-difluorohexahydro-1H-pyrrolo[3,2-c]isoxazol-1-yl)-2,2-dimethylbutanoic acid], the EC50 in the data set with HBV is 15 nM. The compound further gave a CC50 at 6 days in data set [1] of over 50000 nM.

Regarding `CCOC(=O)C1=C(CN2CC(F)(F)[C@@H]3[C@H]2CON3CCC(C)(C)C(=O)O)NC(c2nccs2)=N[C@H]1c1ccc(F)c(F)c1F` (single isomer, unassigned) [Compound 175, 4-((cis)-4-((5-(Ethoxycarbonyl)-2-(thiazol-2-yl)-6-(2,3,4-trifluorophenyl)-3,6-dihydropyrimidin-4-yl)methyl)-6,6-difluorohexahydro-1H-pyrrolo[3,2-c]isoxazol-1-yl)-2,2-dimethylbutanoic acid], in the data set on HBV, the EC50 is 8 nM. Further, the CC50 at 6 days in data set [1] was over 50000 nM.

Consider `CCOC(=O)C1=C(CN2CC(F)(F)[C@@H]3[C@H]2CON3CC(C)(C)C(=O)O)NC(c2nccs2)=N[C@H]1c1cccc(F)c1C` (single isomer, unassigned) [Compound 176], for which the EC50 in the data set on HBV amounted to 3 nM. This compound also returned a CC50 at 6 days in data set [1] of 24800 nM.

As to `CCOC(=O)C1=C(CN2C[C@H](F)[C@H]3[C@@H]2CON3CCC(C)(C)C(=O)O)NC(c2nccs2)=N[C@H]1c1cccc(F)c1C` (single isomer, unassigned) [Compound 177], the EC50 in the data set on HBV worked out at 15 nM. This compound also displayed a CC50 at 6 days in data set [1] of 24000 nM.

For the compound `CCOC(=O)C1=C(CN2CC(F)(F)[C@@H]3[C@H]2CON3C[C@@H](CC)C(=O)O)NC(c2nccs2)=N[C@H]1c1cccc(F)c1C` (single isomer, unassigned) [Compound 178A], the EC50 with HBV is 3.5 nM. This compound showed a CC50 at 6 days in data set [1] of over 50000 nM.

As for `CCOC(=O)C1=C(CN2CC(F)(F)[C@@H]3[C@H]2CON3C[C@H](CC)C(=O)O)NC(c2nccs2)=N[C@H]1c1cccc(F)c1C` (single isomer, unassigned) [Compound 178B], the EC50 in the data set with HBV was determined as 12 nM. In data set [1], this compound yielded a CC50 at 6 days of over 50000 nM.

Take `CCOC(=O)C1=C(CN2CC(F)(F)[C@@H]3CNC[C@@H]32)NC(c2nccs2)=N[C@H]1c1cccc(F)c1C` (single isomer, unassigned) [Compound 179]: the EC50 with HBV came to 50 nM. In data set [1], the CC50 at 6 days is over 3100 nM.

For `CCOC(=O)C1=C(CN2CC(F)(F)[C@@H]3C(=O)N([C@@H](C)C(=O)O)C[C@@H]32)NC(c2nccs2)=N[C@H]1c1cccc(F)c1C` (single isomer, unassigned) [Compound 180], in the data set with HBV, the EC50 was found to be 92.6 nM. The CC50 at 6 days in data set [1] is over 100000 nM.

Take `CCOC(=O)C1=C(CN2CC(F)(F)[C@@H]3C(=O)N(C[C@@H](C)C(=O)O)C[C@@H]32)NC(c2nccs2)=N[C@H]1c1cccc(F)c1C` (single isomer, unassigned) [Compound 181A]: in the data set with HBV, the EC50 came to 12.3 nM. Further, in data set [1], the CC50 at 6 days came out at 52900 nM.

For the compound `CCOC(=O)C1=C(CN2CC(F)(F)C3C(=O)N(C[C@H](C)C(=O)O)C[C@@H]32)NC(c2nccs2)=N[C@H]1c1cccc(F)c1C` (single isomer, unassigned) [Compound 181B], the EC50 in the data set on HBV was 9.5 nM. In data set [1], this compound came in with a CC50 at 6 days of 69900 nM.

As usually defined, the EC50 is the midpoint of the concentration-response curve. One may read the CC50 as the concentration that lowers cell viability or growth by half. A lower CC50 goes with harm at low concentration.
